Source: US12115182B2, “Adenosine A2A agonists for the treatment of cytokine storm syndrome” (priority 2021, dated 2024)

System: MMP-9
Assay: Gelatin zymography of plasma MMP-9 in lung transplant recipients
Format: in vivo, human
Conditions: low and high dose vs control, 30 minutes after 1st and 2nd lung reperfusion
Description: We designed this trial mainly as a Phase I safety and feasibility study that would allow an optimal infusional dose to be determined based on dose-limiting toxicities identified in lung transplant recipients. We also evaluated the potential efficacy by clinical outcomes and the lab evaluation of various cytokines/chemokines, DAMPs and enzymes. Blood was drawn for cytokine/chemokine, DAMPs and MMP-2/-9 analysis at the following different timepoints: 1) before infusion, 2) 15 minutes before reperfusion of the 1st lung, 3) 30 minutes after reperfusion of 1st lung, 4) 30 minutes after reperfusion of 2nd lung, and 5) 6 hours after reperfusion of 1st lung. HMGB1 and sRAGE levels were measured using a customized human Cytokine/Chemokine multiplex immunoassay (Millipore Sigma, Burlington, MA) at The University of Virginia Flow Cytometry Core (RRID: SCR_01 7829) as previously described (LAU et al., J Heart Lung Transplant, (2020), 39:563-570).
Plasma samples were collected as described above. Protein concentrations were determined with BCA protein assay. Equal amounts of proteins (20 μg) were loaded in each lane for MMP-2 and-9 gelatinolytic activity detection by use of gelatin zymography as our previous publications (ZHAO et al., J Biol Chem, (2003), 278:15056-15064; ZHAO et al., Am J Physiol Lung Cell Mol Physiol, (2011), 300: L718-729).

CNC(=O)c1cnn(-c2nc(N)c3ncn([C@@H]4O[C@H](CO)[C@@H](O)[C@H]4O)c3n2)c1 [Regadenoson]
gelatinolytic activity of MMP-9 in plasma: significantly decreased
